# Key:
# [1] = system: reaction to a standard surgical stimulus (skin incision); details: average adult male at age 40 years; 1 atmosphere; cited from earlier work
# [2] = Release into carrier gas, testing chamber 1 (60 ml glass jar, anaesthetic monitor); type: physicochemical; details: for Sevo % @ 30 s / time to 0% Sevo/s: HPFP only, No N2 flow
# Procedure: Specifically, a 60 ml glass jar fitted with septum, N2 inlet and 1 ml syringe (open to air). Typically tests used a 3 ml sample or equivalent with respect to anaesthetic content. Headspace concentrations were sampled from gas flow out (no recirculation) and measured with a standard anaesthetic monitor using a balloon to provide a nitrogen atmosphere or with or 2 L min^−1 N2 passed over or bubbled through sample;
# The formulations described in Tables 1-4 were tested using testing chamber 1, the experimental set-up for which is described in FIG. 1a, by addition of an appropriate quantity of formulation to a 60 ml glass jar fitted with septum, N2 inlet and (needle free) 1 ml syringe (open to air) via a plastic tube from within which the outflow gas was continuously sampled and monitored for anaesthetic concentration. Typically a 3 ml sample was used, or an equivalent amount with respect to anaesthetic content. A balloon was used to provide a nitrogen atmosphere with no flow-through, or a continuous flow of nitrogen as a carrier gas was passed over or bubbled through the sample at a controlled flow-rate. Headspace fluorocarbon concentrations were sampled from gas outflow (no recirculation) and measured using a standard anaesthetic monitor (Capnomac Ultima, Datex Instrumentarium Inc., Heslinki, Finland), monitoring on either sevoflurane or isoflurane settings, depending on the anaesthetic in the formulation.
# [3] = Gelation of liquid anaesthetics by gelators (heat-cool cycles, inversion); type: physicochemical
# Procedure: […] The solubility of the gelator at room temperature was observed by visual inspection, and samples subjected to a series of heat-cool cycles (hot ˜60° C., cold ˜5° C.) until solubility of the gelator was complete (or ceased to improve) and a clear gel was formed on cooling. A final heating cycle was carried out and the samples allowed to cool slowly to room temperature (cooling rate uncontrolled). […] Further inspection was carried out after 24 hours, and no difference in results was observed. On storage, sealed samples remain gelled for at least 12 months.
# A series of gelators were investigated with chain lengths […] corresponding to gelators G3-G8.
# [4] = 1st value column (amount equivalent to J1)
# [5] = 3rd value column (amount equivalent to J5)
# [6] = 1 wt % gelator after 2x heat-cool cycling
smiles,measurement,setting,value
FC(F)OC(F)(F)C(F)Cl (stereo not shown) [enflurane],MAC value of 1 (release level),[1],1.6 volume %
"FC(C(F)C(F)(F)C(F)(F)F)C(F)(F)F (stereo not shown) [HPFP, 2H, 3H-perfluoropentane]",Time to 0% sevoflurane/s,"[2]; 2 l min−1 N2 Over sample, 3 ml HPFP",220 s
same,sevoflurane % @ 30 s,"[2]; 2 l min−1 N2 Over sample, 3 ml HPFP, monitored as sevoflurane",1.6%
same,Time to 0% sevoflurane/s,"[2]; 2 l min−1 N2 through sample, 3 ml HPFP",<220 s
same,Sevo % @ 30 s,[2]; [4],1.9%
same,time to 0% Sevo/s,[2]; [4],135 s
same,Sevo % @ 30 s,[2]; 2nd value column (equivalent formulation unclear),2.0%
same,time to 0% Sevo/s,[2]; 2nd value column,140 s
same,Sevo % @ 30 s,[2]; [5],2.8%
same,time to 0% Sevo/s,[2]; [5],335 s
same,Sevo % @ 30 s,[2]; 4th value column (equivalent formulation unclear),2.9%
same,time to 0% Sevo/s,[2]; 4th value column,900 s
FC(F)OC(Cl)C(F)(F)F (stereo not shown) [isoflurane],MAC value of 1 (release level),[1],1.2 volume %
FC(F)OC(F)C(F)(F)F (stereo not shown) [desflurane],MAC value of 1 (release level),[1],6 volume %
FCOC(C(F)(F)F)C(F)(F)F [sevoflurane],time of drop to zero anaesthetic concentration,"[2]; 3 ml sevoflurane, 2 L min^−1",15 to 16 min
same,plateau sevoflurane concentration in carrier gas,"[2]; 3 ml sevoflurane, 2 L min^−1 carrier gas",~13%
same,anaesthetic concentration in the carrier gas outflow stream,"[2]; first 10 minutes, 3 ml sevoflurane, 2 L min^−1 through headspace",13-15%
same,MAC value of 1 (release level),[1],2 volume %
FC(F)(F)C(Cl)Br (stereo not shown) [halothane],MAC value of 1 (release level),[1],0.76 volume %
CC(C)OC(=O)[C@@H](O)[C@H](O)CCCCCCCC[C@@H](O)[C@H](O)C(=O)OC(C)C (racemic) [G4],gelation of sevoflurane at lower gelator concentration,[3]; 0.1 wt % gelator,without success
same,Gel state of anaesthetic: Desfluorane,[3]; [6],Yes
same,Gel state of anaesthetic: Isoflurane,[3]; [6],No^†
same,Gel state of anaesthetic: Sevoflurane,[3]; [6],Good gels and Yes
same,gel state of isoflurane,[3]; 1.5 wt % gelator,partially gelled
same,gel state of isoflurane,"[3]; 2, 3, and 5 wt % gelator",gels and stable isoflurane gels were obtained
